Laboratory results: patent publication US20260285850A1, “SUBSTITUTED OXAZOLIDINONES AND IMIDAZOLINONES AS HERBICIDES” (FMC CORPORATION, priority 2023, published 2026)

Experiments:
Assay type in all cases: in vivo
[1] = test system: barnyardgrass (Echinochloa crusgalli); test: Test B flooded paddy test, visual plant response rating 0-100; conditions: 250 g ai/ha, Flood, applied to paddy water, evaluated after 13 days
Procedure, shortened: (§1)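 Visual scores versus untreated controls were recorded 13 days after treatment of greenhouse-held plants. At the 2-leaf stage, pots were flooded 3 cm above the soil surface and compounds added straight to the water.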

rice (Oryza sativa) = test: as above; conditions: 250 g ai/ha, Flood, applied to paddy water, evaluated after 13 days
Procedure, shortened: as §1

[2] = test system: sedge, umbrella (small-flower umbrella sedge, Cyperus difformis); test: as above; conditions: 250 g ai/ha, Flood, applied to paddy water, evaluated after 13 days
Procedure, shortened: as §1

[3] = test system: ducksalad (Heteranthera limosa); test: as above; conditions: 250 g ai/ha, Flood, applied to paddy water, evaluated after 13 days
Procedure, shortened: as §1

[4] = test system: green foxtail (Setaria viridis); test: Test A preemergence soil spray, visual injury rating 0-100; conditions: 10 days
Procedure, shortened: (§2)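 Visual injury ratings (0, no effect; 100, complete control) were assigned relative to untreated plants 10 days after treatment. Test chemicals, formulated with a surfactant-containing non-phytotoxic solvent, were applied in loam-sand soil either as a directed soil spray before emergence or to emerged plants, and plants were kept in a greenhouse.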

kochia (Bassia scoparia) [5] = test: as above; conditions: 10 days
Procedure, shortened: as §2

[6] = test system: wheat (Triticum aestivum); test: as above; conditions: 10 days
Procedure, shortened: as §2

[7] = test system: blackgrass (Alopecurus myosuroides); test: as above; conditions: 10 days
Procedure, shortened: as §2

[8] = test system: ragweed (common ragweed, Ambrosia artemisiifolia); test: as above; conditions: 10 days
Procedure, shortened: as §2

[9] = test system: palmer (palmer amaranth, palmer pigweed, Amaranthus palmeri); test: as above; conditions: 10 days
Procedure, shortened: as §2

[10] = test system: ryegrass, Italian (italian ryegrass, Lolium multiflorum); test: as above; conditions: 10 days
Procedure, shortened: as §2

soybean (Glycine max) [11] = test: as above; conditions: 10 days
Procedure, shortened: as §2

corn (Zea mays) [12] = test: as above; conditions: 10 days
Procedure, shortened: as §2

[13] = test system: barnyardgrass (Echinochloa crus-galli); test: as above; conditions: 10 days
Procedure, shortened: as §2

[14] = test system: oat, wild (wild oat, Avena fatua); test: as above; conditions: 10 days
Procedure, shortened: as §2

[15] = test system: green foxtail (Setaria viridis); test: Test A postemergence application, visual injury rating 0-100
Procedure, shortened: as §2

[16] = test system: horseweed (Erigeron canadensis); test: as above
Procedure, shortened: as §2

kochia (Bassia scoparia) [17] = test: as above
Procedure, shortened: as §2

[18] = test system: wheat (Triticum aestivum); test: as above
Procedure, shortened: as §2

[19] = test system: blackgrass (Alopecurus myosuroides); test: as above
Procedure, shortened: as §2

[20] = test system: ragweed (common ragweed, Ambrosia artemisiifolia); test: as above
Procedure, shortened: as §2

[21] = test system: palmer (palmer amaranth, palmer pigweed, Amaranthus palmeri); test: as above
Procedure, shortened: as §2

[22] = test system: galium (catchweed bedstraw, Galium aparine); test: as above
Procedure, shortened: as §2

[23] = test system: ryegrass, Italian (italian ryegrass, Lolium multiflorum); test: as above
Procedure, shortened: as §2

soybean (Glycine max) [24] = test: as above
Procedure, shortened: as §2

corn (Zea mays) [25] = test: as above
Procedure, shortened: as §2

[26] = test system: barnyardgrass (Echinochloa crus-galli); test: as above
Procedure, shortened: as §2

[27] = test system: oat, wild (wild oat, Avena fatua); test: as above
Procedure, shortened: as §2

[28] = 62 g ai/ha, 0 = no effect, 100 = complete control
[29] = 62 g ai/ha, postemergence, 10 days, 0 = no effect, 100 = complete control
[30] = Postemergence, 16 g ai/ha, greenhouse 10 days, 0 no effect, 100 complete control

C=CC1(C(=O)NC2CC(C(=O)OC)C2)CN(c2cc(F)cc(F)c2)C(=O)O1 (stereo not shown) [Compound 173]
40: Barnyardgrass plant response rating ([13]; 16 g ai/ha, 0 to 100 scale)
20: Pigweed, Palmer plant response rating ([9]; 16 g ai/ha, 0 to 100 scale)
0: Ragweed plant response rating ([8]; 16 g ai/ha, 0 to 100 scale) | Ragweed plant response rating (0-100) [8, 28] | Horseweed plant response rating (0 to 100 scale) [16, 30] | Ragweed plant response rating (0 to 100 scale) [20, 30]
100: Plant response rating, Sedge, Umbrella (0 to 100 scale, 0 is no effect and 100 is complete control) [2] | Foxtail, Green plant response rating (0-100) [4, 28] | Wheat plant response rating (0-100) [6, 28] | Barnyardgrass plant response rating (0-100) [13, 28] | Corn plant response rating (0-100) (corn (Zea mays) [25]; [29]) | Corn plant response rating (0 to 100 scale) (corn (Zea mays) [25]; [30])
30: Soybean plant response rating (soybean (Glycine max) [11]; 16 g ai/ha, 0 to 100 scale)
80: Kochia plant response rating (0-100) (kochia (Bassia scoparia) [5]; [28]) | Ryegrass, Italian plant response rating ([10]; 16 g ai/ha, 0 to 100 scale) | Ragweed plant response rating (0-100) [20, 29] | Galium plant response rating (0-100) [22, 29] | Galium plant response rating (0 to 100 scale) [22, 30] | Ryegrass, Italian plant response rating (0 to 100 scale) [23, 30] | Barnyardgrass plant response rating (0 to 100 scale) [26, 30]
10: Kochia plant response rating (kochia (Bassia scoparia) [5]; 16 g ai/ha, 0 to 100 scale)
90: Plant response rating, Barnyardgrass (0 to 100 scale, 0 is no effect and 100 is complete control) [1] | Foxtail, Green plant response rating ([4]; 16 g ai/ha, 0 to 100 scale) | Wheat plant response rating ([6]; 16 g ai/ha, 0 to 100 scale) | Blackgrass plant response rating ([7]; 16 g ai/ha, 0 to 100 scale) | Blackgrass plant response rating (0-100) [7, 28] | Pigweed, Palmer plant response rating (0-100) [9, 28] | Ryegrass, Italian plant response rating (0-100) [10, 28] | Corn plant response rating (0-100) (corn (Zea mays) [12]; [28]) | Oat, Wild plant response rating (0-100) [14, 28] | Foxtail, Green plant response rating (0-100) [15, 29] | Foxtail, Green plant response rating (0 to 100 scale) [15, 30] | Kochia plant response rating (0-100) (kochia (Bassia scoparia) [17]; [29]) | Kochia plant response rating (0 to 100 scale) (kochia (Bassia scoparia) [17]; [30]) | Wheat plant response rating (0-100) [18, 29] | Wheat plant response rating (0 to 100 scale) [18, 30] | Blackgrass plant response rating (0-100) [19, 29] | Blackgrass plant response rating (0 to 100 scale) [19, 30] | Pigweed, Palmer plant response rating (0-100) [21, 29] | Pigweed, Palmer plant response rating (0 to 100 scale) [21, 30] | Ryegrass, Italian plant response rating (0-100) [23, 29] | Barnyardgrass plant response rating (0-100) [26, 29] | Oat, Wild plant response rating (0-100) [27, 29] | Oat, Wild plant response rating (0 to 100 scale) [27, 30]
95: Plant response rating, Ducksalad (0 to 100 scale, 0 is no effect and 100 is complete control) [3]
70: Soybean plant response rating (0-100) (soybean (Glycine max) [11]; [28]) | Oat, Wild plant response rating ([14]; 16 g ai/ha, 0 to 100 scale)
75: Plant response rating, Rice (0 to 100 scale, 0 is no effect and 100 is complete control) (rice (Oryza sativa))
50: Corn plant response rating (corn (Zea mays) [12]; 16 g ai/ha, 0 to 100 scale) | Horseweed plant response rating (0-100) [16, 29] | Soybean plant response rating (0-100) (soybean (Glycine max) [24]; [29]) | Soybean plant response rating (0 to 100 scale) (soybean (Glycine max) [24]; [30])
